Data: PubChem BioAssay AID1259246 (Broad Institute, 2017)
Records with an inconclusive call do not appear. Activity calls are given as the source filed them.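 The calls were made as follows: active = valid dose-response fit whose half-maximal growth-inhibiting concentration is at or below a set limit above the top tested dose; inconclusive = flat fit with effect between 30 and 70%, or poor fit; inactive = half-maximal concentration above a set limit.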

Assay: antibacterial activity against Clostridioides difficile – 10-point retest, dose response (AID 1259246)
Conditions: Clostridioides difficile clinical isolate growth, OD600, 24 h; at 60 µM (top of the series)
In the case of `C[C@H]1CN([C@@H](C)CO)S(=O)(=O)c2ccc(C#CC3CCCC3)cc2O[C@@H]1CN(C)Cc1cccnc1`, the activity change, negative = inhibition is reported as 7.15% (inactive).
With `C[C@@H]1CN([C@H](C)CO)C(=O)Cc2cc(NC(=O)CCCN(C)C)ccc2O[C@@H]1CN(C)Cc1ccc(-c2ccccc2)cc1` the activity change, negative = inhibition was 28.6% (inactive).

Same assay, conditions: Clostridioides difficile clinical isolate growth, OD600, 24 h; at 120 µM (top of the series)
For `CC(C)CC#Cc1ccc2c(c1)O[C@H](CN(C)Cc1ccccc1F)[C@H](C)CN([C@@H](C)CO)S2(=O)=O`, the activity change, negative = inhibition was 26.2% (inactive).
In the case of `C[C@@H]1CN([C@@H](C)CO)S(=O)(=O)c2ccc(C#CC3CCCC3)cc2O[C@H]1CN(C)Cc1cccnc1`, the activity change, negative = inhibition is reported as 23.5% (inactive).
For `COc1ccc(CN2C[C@H](C)[C@@H](OC)CN(C)C(=O)c3ccc(NC(=O)c4nc5ccccc5s4)cc3OC[C@@H]2C)cc1`, the activity change, negative = inhibition was 9.23% (inactive).
For `CNC[C@H]1Oc2c(NC(=O)Nc3ccc4c(c3)OCO4)cccc2C(=O)N([C@@H](C)CO)C[C@H]1C`, the activity change, negative = inhibition was 4.27% (inactive).
For `CO[C@H]1CN(C)C(=O)c2cc(NC(=O)c3nc4ccccc4s3)ccc2OC[C@@H](C)N(Cc2ccncc2)C[C@@H]1C`, the activity change, negative = inhibition was 5.15% (inactive).
With `O=S(=O)(Cc1ccccc1)NCC[C@H]1CC[C@H](NS(=O)(=O)c2ccccc2)[C@H](CO)O1` the activity change, negative = inhibition was -7.57% (inactive).
With `C[C@@H]1CN([C@H](C)CO)S(=O)(=O)c2ccc(C#Cc3ccccc3F)cc2O[C@@H]1CN(C)CC1CCOCC1` the activity change, negative = inhibition was 19.4% (inactive).
In the case of `O=C(C[C@@H]1C[C@@H]2c3cc(NC(=O)Nc4ccc(F)cc4)ccc3O[C@@H]2[C@@H](CO)O1)NC1CCCCC1`, the activity change, negative = inhibition is reported as -8.47% (inactive).
In the case of `COc1ccc(C(=O)Nc2ccc3c(c2)C(=O)N(C)C[C@H](OC)[C@H](C)CN[C@@H](C)CO3)cc1`, the activity change, negative = inhibition is reported as 8.1% (inactive).
With `C[C@@H]1CN([C@H](C)CO)C(=O)c2cc(NC(=O)Nc3cccc4ccccc34)ccc2O[C@@H](C)CCCCO[C@H]1CN(C)S(=O)(=O)c1ccccc1` the activity change, negative = inhibition was 9.12% (inactive).
In the case of `C[C@@H]1CN([C@@H](C)CO)S(=O)(=O)c2ccc(C#CCN(C)C)cc2O[C@@H]1CN(C)Cc1ccc2c(c1)OCO2`, the activity change, negative = inhibition is reported as 2.58% (inactive).
With `Cc1ccc(S(=O)(=O)N[C@@H]2CC[C@@H](CCNS(=O)(=O)Cc3ccccc3)O[C@@H]2CO)cc1` the activity change, negative = inhibition was -1.17% (inactive).
In the case of `COC(=O)C[C@H]1C[C@@H]2c3cc(NC(=O)C4CCC4)ccc3O[C@@H]2[C@@H](CO)O1`, the activity change, negative = inhibition is reported as -6.56% (inactive).
For `C[C@H]1CN([C@@H](C)CO)C(=O)Cc2cc(NC(=O)CCCN(C)C)ccc2O[C@H]1CN(C)Cc1ccc(-c2ccccc2)cc1`, the activity change, negative = inhibition was 20.8% (inactive).
With `C[C@@H]1CN([C@H](C)CO)C(=O)Cc2cc(NC(=O)C3CC3)ccc2O[C@@H]1CN(C)Cc1ccc(Oc2ccccc2)cc1` the activity change, negative = inhibition was 22.6% (inactive).
For `C[C@@H]1CN([C@@H](C)CO)C(=O)Cc2cc(NC(=O)C3CCCCC3)ccc2O[C@@H]1CN(C)Cc1ccc(-c2ccccc2)cc1`, the activity change, negative = inhibition was 19% (inactive).
With `C[C@@H]1CN([C@@H](C)CO)C(=O)c2cccc(NC(=O)Nc3ccccc3)c2O[C@H]1CN(C)Cc1ccc(Oc2ccccc2)cc1` the activity change, negative = inhibition was 26.1% (inactive).
For `CC(C)CC#Cc1ccc2c(c1)O[C@@H](CN(C)Cc1ccccc1)[C@H](C)CN([C@@H](C)CO)S2(=O)=O`, the activity change, negative = inhibition was 32.1% (inactive).
In the case of `Cc1ccc(S(=O)(=O)N[C@H]2CC[C@@H](CCNS(=O)(=O)Cc3ccccc3)O[C@@H]2CO)cc1`, the activity change, negative = inhibition is reported as -4.91% (inactive).
In the case of `C[C@H]1CN([C@@H](C)CO)C(=O)c2cccc(NC(=O)Nc3ccc(C(F)(F)F)cc3)c2O[C@@H]1CN(C)Cc1ccc2c(c1)OCO2`, the activity change, negative = inhibition is reported as 34.1% (inactive).
For `C[C@@H]1CN([C@@H](C)CO)C(=O)Cc2cc(NC(=O)c3ccncc3)ccc2O[C@@H]1CN(C)Cc1ccc(-c2ccccc2)cc1`, the activity change, negative = inhibition was 19.7% (inactive).
For `C[C@@H]1CN([C@@H](C)CO)S(=O)(=O)c2ccc(Br)cc2O[C@H]1CN(C)Cc1cccnc1`, the activity change, negative = inhibition was 2.31% (inactive).
In the case of `C[C@H](CO)N1C[C@H](C)[C@@H](CN(C)Cc2ccc(Oc3ccccc3)cc2)Oc2ccc(NC(=O)C3CC3)cc2CC1=O`, the activity change, negative = inhibition is reported as 33.9% (inactive).
With `Cc1ccc(S(=O)(=O)N[C@H]2CC[C@H](CCNC(=O)Cc3ccccn3)O[C@H]2CO)cc1` the activity change, negative = inhibition was -0.997% (inactive).
For `C[C@H](CO)N1C[C@H](C)[C@@H](CN(C)C(=O)NC2CCCCC2)Oc2c(NC(=O)Nc3cccc4ccccc34)cccc2C1=O`, the activity change, negative = inhibition was 23.7% (inactive).
With `C[C@@H]1CN([C@@H](C)CO)C(=O)Cc2cc(NC(=O)CCCN(C)C)ccc2O[C@H]1CN(C)Cc1ccc(C(F)(F)F)cc1` the activity change, negative = inhibition was 23.8% (inactive).
For `C[C@@H]1CN([C@@H](C)CO)C(=O)Cc2cc(NC(=O)CCC(F)(F)F)ccc2O[C@H]1CN(C)Cc1ccc(-c2ccccc2)cc1`, the activity change, negative = inhibition was 37.3% (inactive).
For `CNC[C@H]1Oc2cc(Br)ccc2S(=O)(=O)N([C@H](C)CO)C[C@@H]1C`, the activity change, negative = inhibition was 6.99% (inactive).
With `COc1ccc(NC(=O)Nc2cccc3c2O[C@H](CN(C)Cc2ccc(Oc4ccccc4)cc2)[C@@H](C)CN([C@@H](C)CO)C3=O)cc1` the activity change, negative = inhibition was 19.2% (inactive).
With `C[C@@H]1CCCCO[C@H](CN(C)S(=O)(=O)c2ccc(F)cc2)[C@H](C)CN([C@H](C)CO)C(=O)c2cc(NC(=O)Nc3cccc4ccccc34)ccc2O1` the activity change, negative = inhibition was 23.1% (inactive).
With `CO[C@@H]1CN(C)C(=O)c2ccc(NC(=O)c3nc4ccccc4s3)cc2OC[C@H](C)N(Cc2ccncc2)C[C@H]1C` the activity change, negative = inhibition was 7.34% (inactive).
For `C[C@H](CO)N1C[C@H](C)[C@H](CN(C)Cc2ccc(C(=O)O)cc2)Oc2cc(/C=C/c3ccccc3)ccc2S1(=O)=O`, the activity change, negative = inhibition was -7.29% (inactive).
With `CC(C)CC#Cc1ccc2c(c1)O[C@H](CN(C)Cc1ccc3c(c1)OCO3)[C@@H](C)CN([C@@H](C)CO)S2(=O)=O` the activity change, negative = inhibition was 21.9% (inactive).
With `C[C@H]1CCCCO[C@@H](CN(C)S(=O)(=O)c2ccc(F)cc2)[C@@H](C)CN([C@@H](C)CO)C(=O)c2cc(NC(=O)Nc3cccc4ccccc34)ccc2O1` the activity change, negative = inhibition was 42.1% (inactive).
With `C[C@H](CO)N1C[C@H](C)[C@H](CN(C)Cc2ccc(-c3ccccc3)cc2)Oc2c(NC(=O)Nc3ccc4c(c3)OCO4)cccc2C1=O` the activity change, negative = inhibition was 24.3% (inactive).
For `CNC[C@@H]1Oc2cc(C#CCC(C)C)ccc2S(=O)(=O)N([C@@H](C)CO)C[C@H]1C`, the activity change, negative = inhibition was 21.5% (inactive).
For `CO[C@H]1CN(C)C(=O)c2ccc(NC(=O)c3nc4ccccc4s3)cc2OC[C@H](C)N(Cc2ccncc2)C[C@H]1C`, the activity change, negative = inhibition was 18.4% (inactive).
With `COc1ccccc1CNC(=O)C[C@@H]1C[C@@H]2c3cc(NC(=O)NC4CCCC4)ccc3O[C@@H]2[C@@H](CO)O1` the activity change, negative = inhibition was 2.23% (inactive).
In the case of `CNC[C@@H]1Oc2ccc(NC(=O)CCCN(C)C)cc2CC(=O)N([C@H](C)CO)C[C@H]1C`, the activity change, negative = inhibition is reported as 2.33% (inactive).
For `C[C@H](CO)N1C[C@H](C)[C@@H](CN(C)C(=O)NC2CCCCC2)Oc2c(NC(=O)Nc3ccc(F)cc3)cccc2C1=O`, the activity change, negative = inhibition was 9.73% (inactive).
In the case of `CO[C@@H]1CN(C)C(=O)c2ccc(NC(=O)c3nc4ccccc4s3)cc2OC[C@@H](C)N(Cc2ccncc2)C[C@H]1C`, the activity change, negative = inhibition is reported as 28.6% (inactive).
With `COc1ccc(CNC(=O)C[C@H]2C[C@@H]3c4cc(NC(=O)NC5CCCC5)ccc4O[C@@H]3[C@@H](CO)O2)cc1` the activity change, negative = inhibition was 6.58% (inactive).
With `C[C@@H]1CN([C@@H](C)CO)C(=O)c2ccccc2-c2ccccc2CO[C@@H]1CN(C)S(=O)(=O)c1ccc([N+](=O)[O-])cc1` the activity change, negative = inhibition was 35.2% (inactive).
With `C[C@H]1CN([C@@H](C)CO)C(=O)c2cccc(NC(=O)Nc3ccc(C(F)(F)F)cc3)c2O[C@@H]1CN(C)C(=O)NC1CCCCC1` the activity change, negative = inhibition was 19.5% (inactive).
In the case of `C[C@H](CO)N1C[C@H](C)[C@@H](CN(C)Cc2ccncc2)Oc2cc(-c3ccccc3)ccc2S1(=O)=O`, the activity change, negative = inhibition is reported as 21.1% (inactive).
With `C[C@@H]1CCCCO[C@@H](CN(C)S(=O)(=O)c2ccc(F)cc2)[C@H](C)CN([C@@H](C)CO)C(=O)c2cc(NC(=O)Nc3cccc4ccccc34)ccc2O1` the activity change, negative = inhibition was 18.9% (inactive).
For `COc1ccc(CN2C[C@@H](C)[C@H](OC)CN(C)C(=O)c3ccc(NC(=O)c4nc5ccccc5s4)cc3OC[C@H]2C)cc1`, the activity change, negative = inhibition was 22.7% (inactive).
For `C[C@@H]1CN([C@H](C)CO)C(=O)c2cc(NC(=O)Nc3ccc(F)cc3)ccc2O[C@@H](C)CCCCO[C@H]1CN(C)C(=O)c1ccccc1`, the activity change, negative = inhibition was 41% (inactive).

Same assay, conditions: Clostridioides difficile clinical isolate growth, OD600, 24 h; at 135 µM (top of the series)
In the case of `C[C@@H]1CN([C@@H](C)CO)C(=O)Cc2cc(NC(=O)Nc3ccccc3)ccc2O[C@@H]1CN(C)Cc1ccc(-c2ccccc2)cc1`, the activity change, negative = inhibition is reported as 23.5% (inactive).
For `COc1ccccc1CNC(=O)C[C@H]1C[C@H]2c3cc(NC(=O)NC4CCCC4)ccc3O[C@H]2[C@@H](CO)O1`, the activity change, negative = inhibition was 4.17% (inactive).
In the case of `CNC[C@H]1Oc2c(NC(=O)Nc3ccc(F)cc3)cccc2C(=O)N([C@H](C)CO)C[C@@H]1C`, the activity change, negative = inhibition is reported as 0.222% (inactive).
For `Cc1ccc(S(=O)(=O)N[C@H]2CC[C@@H](CCNS(=O)(=O)Cc3ccccc3)O[C@H]2CO)cc1`, the activity change, negative = inhibition was 3.07% (inactive).
For `Cc1ccc(S(=O)(=O)N[C@H]2CC[C@H](CCNS(=O)(=O)Cc3ccccc3)O[C@@H]2CO)cc1`, the activity change, negative = inhibition was -4.21% (inactive).
In the case of `CO[C@@H]1CN(C)C(=O)c2cc(NC(=O)c3nc4ccccc4s3)ccc2OC[C@H](C)N(Cc2ccncc2)C[C@H]1C`, the activity change, negative = inhibition is reported as 7% (inactive).
In the case of `C[C@@H]1CN([C@H](C)CO)C(=O)Cc2cc(NC(=O)C3CC3)ccc2O[C@@H]1CN(C)Cc1ccc(-c2ccccc2)cc1`, the activity change, negative = inhibition is reported as 20.9% (inactive).
In the case of `C[C@@H]1CN([C@H](C)CO)C(=O)Cc2cc(NS(=O)(=O)c3ccccc3)ccc2O[C@@H]1CN(C)Cc1ccc(-c2ccccc2)cc1`, the activity change, negative = inhibition is reported as 31.9% (inactive).
With `CO[C@H]1CN(C)C(=O)c2cc(NS(=O)(=O)c3ccc(-c4ccccc4)cc3)ccc2OC[C@H](C)NC[C@H]1C` the activity change, negative = inhibition was 10.6% (inactive).
